Laboratory results: PubChem BioAssay (NCI)
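Exposure lasted 48 hours, with cells grown in 96-well plates and compounds tested at five concentrations. Abbreviation: GI50, concentration required for 50% inhibition of growth. TGI is the concentration that stops growth completely.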

Tests used:
Assay in all cases: growth of human tumour cells (NCI), 48 h
[1] = test system: EKVX NSCLC
[2] = test system: HCC-2998 colon
[3] = test system: HT29 colon
[4] = test system: LOX IMVI melanoma
[5] = test system: NCI-H460 lung
[6] = test system: OVCAR-3 ovarian
[7] = test system: SR leukemia
[8] = test system: SK-MEL-28 melanoma

Row | SMILES | GI50 [1] [nM] | TGI [1] [µM] | GI50 [2] [µM] | TGI [2] [µM] | GI50 [3] [µM] | TGI [3] [µM] | GI50 [4] [nM] | TGI [4] [µM] | GI50 [5] [nM] | TGI [5] [µM] | GI50 [6] [nM] | TGI [6] [µM] | GI50 [7] [nM] | TGI [7] [µM] | GI50 [8] [nM] | TGI [8] [µM]
1 | CCCCCCCCn1ccc2cc(NC(=O)Cn3cc(CN4CCCC4)nn3)ccc21 | 1820 | 4 | 1.73 | 3.17 | 1.97 | 4.09 | 1620 | 3.01 | 1820 | 3.51 | 2130 | 4.9 | 2300 | 6.34 | – | –
2 | COc1ccc(-c2nc(-c3nc4ccc(Cl)cc4[nH]3)c3ccccn23)cc1 | – | – | 18.6 | > 100 | 3.66 | 14.2 | 2850 | 6.66 | 2230 | 5.29 | 2610 | 6.69 | 12600 | > 100 | 2140 | 5.34
3 | CCOC(=O)/C(C#N)=C/c1[nH]c(C(=O)OCc2ccccc2)c(C)c1C | – | > 100 | – | > 100 | – | > 100 | – | > 100 | – | > 100 | – | > 100 | – | – | – | > 100
4 | O=C(Nc1ccc(-c2nc(N3CCOCC3)c3cccn3n2)cc1)Nc1cccnc1 | 216 | 0.975 | 0.253 | > 100 | 0.3 | > 100 | – | – | 142 | > 100 | 152 | 1.06 | 245 | 15 | – | –
5 | O=C(CC1(O)C(=O)Nc2ccccc21)c1ccncc1 (stereo unspecified) | – | > 100 | – | > 100 | – | > 100 | – | > 100 | – | > 100 | – | – | – | > 100 | – | > 100
6 | O=C1c2ccccc2C(=O)N1CCc1ncc[nH]1 | – | > 100 | – | – | – | > 100 | – | > 100 | – | > 100 | – | > 100 | – | > 100 | – | > 100
7 | C/C(CC(=O)Nc1cc(C)ccc1C)=N\NC(=O)c1ccncc1 | – | > 100 | – | > 100 | – | > 100 | – | > 100 | – | > 100 | – | > 100 | – | – | – | > 100
8 | Cc1ccc(C(=O)NC(C)C)cc1-c1ccc(C(=O)NCC2CC2)cc1 | > 25000 | > 25 | > 25 | > 25 | > 25 | > 25 | > 25000 | > 25 | > 25000 | > 25 | > 25000 | > 25 | – | – | > 25000 | > 25
9 | CCCC1N2CCCCC2[C@@H]2c3[nH]c4ccccc4c3CCN12 (stereo partly specified) | – | > 100 | – | > 100 | – | > 100 | – | – | – | > 100 | – | > 100 | – | – | – | > 100
10 | O=C(CCc1cc(-c2ccccc2)nc(=S)[nH]1)N(Cc1ccccc1)Cc1ccccc1 | – | > 100 | – | > 100 | – | > 100 | – | > 100 | – | > 100 | – | > 100 | – | – | – | –
11 | CC(=O)OCC1OC(NC(=S)N/N=C2\CC(c3ccccc3)Oc3ccccc32)C(OC(C)=O)C(OC(C)=O)C1OC(C)=O (stereo unspecified) | – | > 100 | – | > 100 | – | > 100 | – | > 100 | – | > 100 | – | > 100 | – | > 100 | – | –
12 | COCCCNC(=O)C1C(=O)C(=O)N(CCCOC)C1=O (stereo unspecified) | – | > 100 | – | > 100 | – | > 100 | – | > 100 | – | – | – | > 100 | – | > 100 | – | > 100
13 | Cc1ccc(NC(=O)CC(=O)n2nc(C)c(N=Nc3ccccc3C(=O)O)c2C)cc1 | – | > 100 | – | > 100 | – | > 100 | – | > 100 | – | > 100 | – | > 100 | – | – | – | > 100
14 | N#CC(C#N)=C1Nc2ccccc2S1 | 34700 | > 100 | – | – | – | – | 42500 | > 100 | 32000 | > 100 | 20300 | 62.9 | 25600 | 51.9 | 27700 | 77.4
15 | Cc1cc(-c2cnn3c(NCC4CC(C)(O)C4)cc(Oc4cccnc4)nc23)ccc1C(=O)NC1CC1 (stereo unspecified) | 3760 | > 100 | – | – | – | – | 395 | > 100 | 585 | > 100 | > 100000 | > 100 | 525 | > 100 | – | –
16 | O=C(O)/C=C(\c1nc2ccc([N+](=O)[O-])cc2[nH]1)c1cc(Cl)ccc1O | 2440 | 28.2 | 4.13 | 29.4 | 3.51 | 14.4 | 2410 | 11.1 | 3030 | 17.9 | – | – | 3230 | 18.5 | 2660 | 14.4
